Source: ChEMBL document CHEMBL4699503, “Structural basis for producing selective MAP2K7 inhibitors” (Bioorg Med Chem Lett, 2020)
pIC50: −log10 of the molar value.

Biological target: T1, Dual specificity mitogen-activated protein kinase kinase 7 (Homo sapiens, UniProt O14733)
T1 sequence (O14733 whole entry): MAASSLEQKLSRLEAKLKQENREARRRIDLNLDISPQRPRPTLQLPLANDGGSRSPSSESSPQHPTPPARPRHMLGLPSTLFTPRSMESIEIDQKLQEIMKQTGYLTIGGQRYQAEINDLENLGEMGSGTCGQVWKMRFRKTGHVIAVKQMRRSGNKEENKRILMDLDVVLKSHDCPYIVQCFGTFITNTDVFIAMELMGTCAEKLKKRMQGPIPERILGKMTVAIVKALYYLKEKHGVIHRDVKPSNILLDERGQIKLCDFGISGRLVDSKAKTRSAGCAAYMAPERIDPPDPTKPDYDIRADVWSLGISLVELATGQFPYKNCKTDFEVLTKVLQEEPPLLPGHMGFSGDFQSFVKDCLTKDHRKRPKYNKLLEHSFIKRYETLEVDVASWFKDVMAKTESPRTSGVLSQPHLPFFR
Experiment: Inhibition of MAP2K7 (unknown origin) using JNK peptide KFMMTPYVVTR incubated for 30 mins measured by multimode reader based ADP-glo assay

C#CCNC(=O)c1cc(NC(=O)C=C)cc(-c2n[nH]c3ccccc23)c1
pIC50: 8.19
